Laboratory results as given in paper PMC7297817, “Pharmacological Characterization of a Betaine/GABA Transporter 1 (BGT1) Inhibitor Displaying an Unusual Biphasic Inhibition Profile and Anti-seizure Effects” (Neurochemical Research, 2020).
Read-outs that look alike come from different tables or passages of the source.

Experiments:
SERT = molecular target: T1, SERT (Homo sapiens, UniProt P31645); assay: NIMH PDSP radioligand binding, SERT; settings: radioligand [3H]citalopram, n=4
T1 construct: purchased NIMH Psychoactive Drug Screening Program (PDSP)

D1 = molecular target: T2, D1 (Homo sapiens, UniProt P21728); assay: NIMH PDSP radioligand binding, D1; settings: radioligand [3H]SCH23390, n=4
T2 construct: purchased NIMH Psychoactive Drug Screening Program (PDSP)

D5 = molecular target: T3, D5 (Homo sapiens, UniProt P21918); assay: NIMH PDSP radioligand binding, D5; settings: radioligand [3H]SCH23390
T3 construct: NIMH PDSP (screening service)

hGAT3 = molecular target: T4, hGAT3 (Homo sapiens, UniProt P48066); assay: [3H]GABA uptake at hGAT3 stably expressed in CHO cells; assay type: cell-based; settings: N=3
T4 construct: expressed in transfected cells
T4 sequence (P48066 1-632): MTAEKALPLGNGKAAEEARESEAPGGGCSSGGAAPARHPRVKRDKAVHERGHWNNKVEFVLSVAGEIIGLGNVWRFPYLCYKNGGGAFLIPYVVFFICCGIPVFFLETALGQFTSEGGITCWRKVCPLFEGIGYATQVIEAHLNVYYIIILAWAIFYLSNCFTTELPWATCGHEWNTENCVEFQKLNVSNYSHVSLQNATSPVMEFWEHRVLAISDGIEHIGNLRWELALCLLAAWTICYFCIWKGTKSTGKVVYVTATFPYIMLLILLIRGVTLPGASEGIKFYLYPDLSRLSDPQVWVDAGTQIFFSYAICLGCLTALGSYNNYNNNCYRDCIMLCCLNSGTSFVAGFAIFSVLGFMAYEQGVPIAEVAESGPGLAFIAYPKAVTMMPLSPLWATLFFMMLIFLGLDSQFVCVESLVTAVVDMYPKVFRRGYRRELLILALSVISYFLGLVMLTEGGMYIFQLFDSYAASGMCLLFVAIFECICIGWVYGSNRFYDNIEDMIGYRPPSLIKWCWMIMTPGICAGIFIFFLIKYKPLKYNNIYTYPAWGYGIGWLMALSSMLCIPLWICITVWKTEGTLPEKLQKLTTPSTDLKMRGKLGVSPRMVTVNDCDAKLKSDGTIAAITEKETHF
Protocol: The HEK-293 and Flp-In CHO cell lines stably expressing mouse (m) and human (h) GATs, respectively, have been described previously and were cultured accordingly. The tsA201 cell line was used for transient expression while the MDCK II cell line express BGT1 endogenously. Both cell lines were cultured as described. tsA201 cells were transfected with DNA constructs (8 μg per 10 cm dish if not otherwise mentioned) using 40 μL PolyFect transfection reagent according to the manufacturer’s protocol (Qiagen, Venlo, Netherlands). The DNA constructs encoding hBGT1, hGAT1-3 [36], the mutated constructs hBGT1 Q299 and hGAT3 L314Q described previously, and hBGT Y453A were synthesized and sequence validated by Genscript (NJ, USA).
The [^3H]GABA competition uptake assay was performed as previously described. A minor change, however, was introduced for uptake in MDCK II cells, in which 100 nM [^3H]GABA was used for a 15 min incubation period at 37 °C instead of 30 nM [^3H]GABA and 3 min incubation. Studies related to the inhibition curves with GABA and BPDBA at hBGT1 were obtained both with and without the presence of 10 μM ATP during the [^3H]GABA uptake assay.
The [^3H]GABA uptake data was normalized to the percentage of total uptake in the individual experiments in the presence of the lowest compound concentration or no compound present. Data presented is the pooled data of at least three independent experiments with three technical replicates. Concentration–response curves (CRCs) were fitted with GraphPad Prism (version 8.2.1, Yosemite, GraphPad Software, San Diego, CA, USA) by non-linear regression to the sigmoidal concentration response model: Y=Bottom+(Top-Bottom)/1+10^LogIC50-X∗nH where Top is the Top plateau, Bottom is the Bottom plateau, X is the logarithm of the concentration of the compound, LogIC50 is the concentration giving a response halfway between Top and Bottom,and nH is the Hill slope.
The best fit for CRCs obtained with the [^3H]GABA uptake assay was identified by the extra-sum-of-squares F test (for convenience referred to as F test).

Sigma2 = assay: NIMH PDSP radioligand binding, Sigma2; settings: 10 μM; radioligand [3H]DTG; n=4
Protocol: IC50 values in μM (Ki μM)^a. The targets in bold were inhibited by >35% at 10 μM.

D4 = molecular target: T5, D4 (Homo sapiens, UniProt P21917); assay: NIMH PDSP radioligand binding, D4; settings: radioligand [3H]N-methylspiperone, n=4
T5 construct: purchased NIMH Psychoactive Drug Screening Program (PDSP)

CF-1 mice = assay: s.c.PTZ seizure threshold test; assay type: in vivo, mouse; settings: 150 mg/kg i.p.
From the text: Male audiogenic-susceptible (AGS) Frings mice were obtained from an in-house breeding facility at the University of Utah (Salt Lake City, UT, USA). Male CF-1 mice for the maximal electroshock (MES) test and the subcutaneous pentylenetetrazol (s.c.PTZ) seizure threshold test were purchased from Charles River (Kingston, WA, USA). All mice were housed in a temperature, humidity, and light (on at 6:00 AM) controlled facility at the University of Utah with access to ad libitum food and water except during testing. All procedures were carried out at the University of Utah in concordance with the National Institutes of Health Guidelines for the Care and Use of Laboratory Animals and under approval from the University of Utah’s Institutional Animal Care and Use Committee. The mice were euthanized in accordance with Public Health Service policies on the humane care of laboratory animals. SBV2-114 was tested for its ability to prevent a minimal clonic seizure in the s.c.PTZ seizure test, which is a test of generalized myoclonic seizures. […] At the TPE, mice were challenged with a s.c. dose of PTZ (85 mg/kg) and observed for 30 min for the presence or absence of a minimal clonic seizure characterized by minimal forelimb clonus and/or vibrissae twitching. Mice not displaying this phenotypic behaviour were considered protected.

MOR = molecular target: T6, MOR (Homo sapiens, UniProt P35372); assay: NIMH PDSP radioligand binding, MOR; settings: radioligand [3H]DAMGO, n=4
T6 construct: purchased NIMH Psychoactive Drug Screening Program (PDSP)
T6 sequence (P35372 whole entry): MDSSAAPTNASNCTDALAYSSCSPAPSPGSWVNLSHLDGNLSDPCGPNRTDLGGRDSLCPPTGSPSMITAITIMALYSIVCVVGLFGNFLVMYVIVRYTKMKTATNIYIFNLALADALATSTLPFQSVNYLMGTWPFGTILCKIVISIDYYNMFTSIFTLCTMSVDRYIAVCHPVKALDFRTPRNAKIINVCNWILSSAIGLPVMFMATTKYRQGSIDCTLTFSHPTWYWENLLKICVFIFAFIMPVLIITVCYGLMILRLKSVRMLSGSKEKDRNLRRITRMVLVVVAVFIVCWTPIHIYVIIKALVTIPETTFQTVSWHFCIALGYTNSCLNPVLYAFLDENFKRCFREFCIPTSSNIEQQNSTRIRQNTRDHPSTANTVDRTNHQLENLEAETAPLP

T3 sequence (P21918 whole entry): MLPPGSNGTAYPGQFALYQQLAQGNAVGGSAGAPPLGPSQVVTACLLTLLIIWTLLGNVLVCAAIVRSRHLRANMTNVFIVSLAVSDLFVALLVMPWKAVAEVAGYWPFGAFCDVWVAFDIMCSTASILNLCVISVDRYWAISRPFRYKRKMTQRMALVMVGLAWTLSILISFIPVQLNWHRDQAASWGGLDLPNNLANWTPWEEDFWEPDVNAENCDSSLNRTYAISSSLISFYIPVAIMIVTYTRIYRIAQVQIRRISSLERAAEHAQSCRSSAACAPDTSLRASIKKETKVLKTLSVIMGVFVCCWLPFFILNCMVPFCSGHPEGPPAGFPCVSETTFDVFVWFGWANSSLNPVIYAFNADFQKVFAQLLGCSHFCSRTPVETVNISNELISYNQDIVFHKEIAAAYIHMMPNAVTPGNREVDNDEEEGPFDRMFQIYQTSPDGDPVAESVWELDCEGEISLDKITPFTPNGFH
T2 sequence (P21728 whole entry): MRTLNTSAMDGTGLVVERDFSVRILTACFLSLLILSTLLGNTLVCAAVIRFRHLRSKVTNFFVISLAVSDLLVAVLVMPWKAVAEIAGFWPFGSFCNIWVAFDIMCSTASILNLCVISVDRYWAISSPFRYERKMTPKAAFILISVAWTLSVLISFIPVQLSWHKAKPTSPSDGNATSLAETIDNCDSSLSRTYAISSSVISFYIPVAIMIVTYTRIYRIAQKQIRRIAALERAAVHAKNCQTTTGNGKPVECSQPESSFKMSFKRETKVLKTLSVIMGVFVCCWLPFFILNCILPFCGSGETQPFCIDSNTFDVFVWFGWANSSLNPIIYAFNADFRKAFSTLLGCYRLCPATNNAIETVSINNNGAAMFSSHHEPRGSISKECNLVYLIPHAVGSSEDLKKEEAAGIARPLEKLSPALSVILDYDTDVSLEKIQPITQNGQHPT
T5 sequence (P21917 whole entry): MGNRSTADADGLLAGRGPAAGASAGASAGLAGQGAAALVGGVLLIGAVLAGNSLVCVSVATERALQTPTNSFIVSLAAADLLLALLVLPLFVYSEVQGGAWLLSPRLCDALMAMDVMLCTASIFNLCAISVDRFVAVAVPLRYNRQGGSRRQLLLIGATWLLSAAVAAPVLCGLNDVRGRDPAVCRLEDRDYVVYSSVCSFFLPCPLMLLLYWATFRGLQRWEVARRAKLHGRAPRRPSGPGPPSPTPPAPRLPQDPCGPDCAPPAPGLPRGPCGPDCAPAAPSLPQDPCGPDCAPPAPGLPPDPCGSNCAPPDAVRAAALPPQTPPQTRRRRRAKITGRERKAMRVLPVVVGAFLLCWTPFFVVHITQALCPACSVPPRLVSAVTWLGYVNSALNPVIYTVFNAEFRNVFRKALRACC
T1 sequence (P31645 whole entry): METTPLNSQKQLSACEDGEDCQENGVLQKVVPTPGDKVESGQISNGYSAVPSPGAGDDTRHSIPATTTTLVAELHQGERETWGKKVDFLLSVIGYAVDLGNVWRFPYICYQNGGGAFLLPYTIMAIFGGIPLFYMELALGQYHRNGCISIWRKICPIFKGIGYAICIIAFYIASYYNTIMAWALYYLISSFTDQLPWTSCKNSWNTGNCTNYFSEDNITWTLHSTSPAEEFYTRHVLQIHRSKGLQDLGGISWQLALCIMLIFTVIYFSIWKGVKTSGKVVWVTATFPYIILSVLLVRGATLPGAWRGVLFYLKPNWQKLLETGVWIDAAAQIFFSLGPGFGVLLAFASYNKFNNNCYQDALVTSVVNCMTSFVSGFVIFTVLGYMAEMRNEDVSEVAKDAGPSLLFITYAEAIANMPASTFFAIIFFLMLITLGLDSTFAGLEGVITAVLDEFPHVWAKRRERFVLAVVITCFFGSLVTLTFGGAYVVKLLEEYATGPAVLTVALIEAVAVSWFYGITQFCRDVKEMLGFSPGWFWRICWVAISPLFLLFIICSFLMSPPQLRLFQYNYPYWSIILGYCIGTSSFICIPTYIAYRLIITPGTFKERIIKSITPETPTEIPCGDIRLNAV

Cc1ccsc1C(=CCCN(C)[C@H]1CCCC[C@H]1C(=O)O)c1sccc1C [SBV2-114, (1R,2S)-2-((4,4-bis(3-methylthiophen-2-yl)but-3-en-yl)(methyl)amino)cyclohexanecarboxylic acid]
inhibition at 10 µM (SERT): 18.8%
inhibition at 10 µM (D1): 14%
inhibition at 10 µM (D5; 10 μM, n=4): 51.7%
Ki (D5; full curve, printed with 'ave'): 10 µM
Frac (hGAT3; biphasic fit, CHO): 0.09
IC50 (hGAT3; biphasic fit, CHO, read-out: IC50, high affinity component): 2.09 µM
Fit (hGAT3; preferred model): Biphasic
IC50 (hGAT3; read-out: IC50, low affinity component, biphasic fit, CHO): 603 µM
% inhibition (Sigma2): 48.3%
inhibition at 10 µM (D4): -5.1%
effect on s.c.PTZ-induced seizures (CF-1 mice): did not block s.c.PTZ-induced seizures
#Protected/#Tested (CF-1 mice; 30 min, PTZ 85 mg/kg s.c.): 0/8
inhibition at 10 µM (MOR): 42%
